The structures appear in SMILES notation.

This test deals with T1, chicken gizzard smooth muscle myosin subfragment-1 chemically crosslinked to cardiac or skeletal actin (Gallus gallus, UniProt P10587).
T1 construct: chicken gizzard smooth muscle myosin subfragment-1; from tissue; host or cells: chicken gizzard
T1 sequence (P02607 2-151): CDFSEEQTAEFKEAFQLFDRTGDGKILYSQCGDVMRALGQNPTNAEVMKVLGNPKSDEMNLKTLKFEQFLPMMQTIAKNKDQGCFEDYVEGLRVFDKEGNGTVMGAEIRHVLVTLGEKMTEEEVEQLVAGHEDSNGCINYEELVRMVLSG
T1 sequence (P10587 84-789): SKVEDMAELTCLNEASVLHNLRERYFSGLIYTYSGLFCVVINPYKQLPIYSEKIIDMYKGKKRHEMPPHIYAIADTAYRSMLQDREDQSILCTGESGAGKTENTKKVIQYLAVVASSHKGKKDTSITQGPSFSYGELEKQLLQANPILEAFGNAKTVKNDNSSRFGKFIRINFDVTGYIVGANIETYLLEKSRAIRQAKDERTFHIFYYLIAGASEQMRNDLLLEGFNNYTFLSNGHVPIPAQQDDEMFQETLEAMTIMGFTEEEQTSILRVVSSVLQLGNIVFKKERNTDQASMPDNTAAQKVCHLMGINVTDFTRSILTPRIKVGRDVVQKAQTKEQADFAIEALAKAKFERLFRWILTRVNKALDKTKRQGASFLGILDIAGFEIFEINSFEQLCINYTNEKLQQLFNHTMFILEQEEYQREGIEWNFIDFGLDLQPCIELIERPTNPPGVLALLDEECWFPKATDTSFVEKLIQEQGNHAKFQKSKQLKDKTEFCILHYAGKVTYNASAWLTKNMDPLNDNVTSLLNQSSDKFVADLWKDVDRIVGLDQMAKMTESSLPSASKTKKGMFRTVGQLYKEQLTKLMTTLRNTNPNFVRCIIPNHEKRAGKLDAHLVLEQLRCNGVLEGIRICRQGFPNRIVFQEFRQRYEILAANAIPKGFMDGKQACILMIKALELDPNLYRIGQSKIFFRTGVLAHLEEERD
As to the kind of experiment: Smooth muscle myosin ATPase dose response assay (pyruvate kinase/horseradish peroxidase/pyruvate oxidase-coupled, amplex red fluorescence). As to conditions: read-out: IC50 Arithmetic Mean. Type of test: biochemical. An outline of the steps: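 Amplex red fluorescence (480 nm excitation, 615 nm emission) tracked ATP hydrolysis by smooth muscle S1 crosslinked to actin with carbodiimide/N-hydroxysuccinimide. Reactions contained 0.15 mM ATP and 100 mM KCl at pH 7.00, 22° C. IC50 came from a four-parameter logistic fit.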
In the case of `Cn1ncc(-c2ccc(C(=O)NCc3cccnc3)c(NCCc3cccc(F)c3)n2)c1C#N` [(6-(5-cyano-1-methylpyrazol-4-yl)-2-{[2-(3-fluorophenyl)ethyl]amino}(3-pyridyl))-N-(3-pyridylmethyl)carboxamide], the 50% inhibitory concentration (IC50) (in general, the midpoint of a concentration-inhibition curve) was 20 nM.
With `N#Cc1[nH]ncc1-c1ccc(C(=O)NCc2cccnc2)c(NCCc2cccc(F)c2)n1` [(6-(5-cyanopyrazol-4-yl)-2-{[2-(3-fluorophenyl)ethyl]amino}(3-pyridyl))-N-(3-pyridylmethyl)carboxamide] the figure was 105 nM; with `N#CCc1ccccc1-c1ccc(C(=O)NCc2cccnc2)c(NCCc2cccc(F)c2)n1` [(6-[2-(cyanomethyl)phenyl]-2-{[2-(3-fluorophenyl)ethyl]amino}(3-pyridyl))-N-(3-pyridylmethyl)carboxamide], 16400 nM; with `O=C(NCc1cccnc1)c1ccc(-c2cc(CO)ccc2Cl)nc1NCCc1cccc(F)c1` [(6-[2-chloro-5-(hydroxymethyl)phenyl]-2-{[2-(3-fluorophenyl)ethyl]amino}(3-pyridyl))-N-(3-pyridylmethyl)carboxamide], 1190 nM.
Consider `NCc1ccsc1-c1ccc(C(=O)NCc2cccnc2)c(NCCc2cccc(F)c2)n1` [(6-[3-(aminomethyl)(2-thienyl)]-2-{[2-(3-fluorophenyl)ethyl]amino}(3-pyridyl))-N-(3-pyridylmethyl)carboxamide], for which the IC50 was determined as 55700 nM.
With `NCc1ccc(-c2ccc(C(=O)NCc3cccnc3)c(NCCc3cccc(F)c3)n2)s1` [(6-[5-(aminomethyl)(2-thienyl)]-2-{[2-(3-fluorophenyl)ethyl]amino}(3-pyridyl))-N-(3-pyridylmethyl)carboxamide] the figure was 2700 nM; with `CN(C)C(=O)CNC(=O)c1ccc(-c2ccccc2)nc1NCCc1ccccc1` [N,N-dimethyl-2-({6-phenyl-2-[(2-phenylethyl)amino](3-pyridyl)}carbonylamino)acetamide], 30300 nM; with `O=C(NCc1ncco1)c1ccc(-c2ccccc2)nc1NCCc1ccccn1` [N-(1,3-oxazol-2-ylmethyl){6-phenyl-2-[(2-(2-pyridyl)ethyl)amino](3-pyridyl)}carboxamide], 4900 nM.
As to `Cn1cc(-c2nc(NCCc3cccc(F)c3)c(C(=O)NCC(O)CO)cc2F)cn1` (centres unmarked) [N-(2,3-dihydroxypropyl)(5-fluoro-2-{[2-(3-fluorophenyl)ethyl]amino}-6-(1-methylpyrazol-4-yl)(3-pyridyl))carboxamide], the IC50 was found to be 307 nM.
In the case of `O=C(NCC(O)CO)c1cc(F)c(-c2cn[nH]c2)nc1NCCc1cccc(F)c1` (centres unmarked) [N-(2,3-dihydroxypropyl)(5-fluoro-2-{[2-(3-fluorophenyl)ethyl]amino}-6-pyrazol-4-yl(3-pyridyl))carboxamide], the IC50 came to 448 nM.
Consider `CC(C)(N)CNC(=O)c1ccc(-c2ccccc2C#N)nc1NCCc1cccc(F)c1` [N-(2-amino-2-methylpropyl)(6-(2-cyanophenyl)-2-{[2-(3-fluorophenyl)ethyl]amino}(3-pyridyl))carboxamide], for which the IC50 worked out at 666 nM.
With `N#Cc1ccccc1-c1ccc(C(=O)NCCN)c(NCCc2cccc(F)c2)n1` [N-(2-aminoethyl)(6-(2-cyanophenyl)-2-{[2-(3-fluorophenyl)ethyl]amino}(3-pyridyl))carboxamide], the concentration for half-maximal inhibition (IC50) was found to be 2640 nM.
As for `NC(=O)CCNC(=O)c1ccc(-c2ccc(CO)s2)nc1NCCc1cccc(F)c1` [N-(2-carbamoylethyl)(2-{[2-(3-fluorophenyl)ethyl]amino}-6-[5-(hydroxymethyl)(2-thienyl)](3-pyridyl))carboxamide], the IC50 is 549 nM.
As to `N#Cc1ccccc1-c1ccc(C(=O)NCCC(N)=O)c(NCCc2cccc(F)c2)n1` [N-(2-carbamoylethyl)(6-(2-cyanophenyl)-2-{[2-(3-fluorophenyl)ethyl]amino}(3-pyridyl))carboxamide], the IC50 amounted to 99 nM.
Turning to `N#Cc1ccccc1-c1ccc(C(=O)NCC(=O)NCCC(N)=O)c(NCCc2cccc(F)c2)n1` [N-(2-carbamoylethyl)-2-[(6-(2-cyanophenyl)-2-{[2-(3-fluorophenyl)ethyl]amino}(3-pyridyl))carbonylamino]acetamide], the IC50 worked out at 12200 nM.
`CC(C)(CNC(=O)c1ccc(-c2ccccc2C#N)nc1NCCc1cccc(F)c1)NC=O` [N-(2-carbonylamino-2-methylpropyl)(6-(2-cyanophenyl)-2-{[2-(3-fluorophenyl)ethyl]amino}(3-pyridyl))carboxamide]: the IC50 was found to be 151 nM.
With `N#Cc1ccccc1-c1ccc(C(=O)NCCNS(=O)(=O)CCN)c(NCCc2cccc(F)c2)n1` [N-(2-{[(2-aminoethyl)sulfonyl]amino}ethyl)(6-(2-cyanophenyl)-2-{[2-(3-fluorophenyl)ethyl]amino}(3-pyridyl))carboxamide], the IC50 stood at 1550 nM.
`N#Cc1ccccc1-c1ccc(C(=O)NC(CCN)C(N)=O)c(NCCc2cccc(F)c2)n1` (centres unmarked) [N-(3-amino-1-carbamoylpropyl)(6-(2-cyanophenyl)-2-{[2-(3-fluorophenyl)ethyl]amino}(3-pyridyl))carboxamide]: the IC50 was 1910 nM.
The figure for `N#Cc1ccccc1-c1ccc(C(=O)NCC(CN)C(N)=O)c(NCCc2cccc(F)c2)n1` (centres unmarked) [N-(3-amino-2-carbamoylpropyl)(6-(2-cyanophenyl)-2-{[2-(3-fluorophenyl)ethyl]amino}(3-pyridyl))carboxamide] is 6650 nM.
With `N#Cc1ccccc1-c1ccc(C(=O)NCC(O)CN)c(NCCc2cccc(F)c2)n1` (centres unmarked) [N-(3-amino-2-hydroxypropyl)(6-(2-cyanophenyl)-2-{[2-(3-fluorophenyl)ethyl]amino}(3-pyridyl))carboxamide] the figure was 4810 nM.
Consider `Cn1cc(-c2nc(NCCc3cccc(F)c3)c(C(=O)NCCCN)cc2F)cn1` [N-(3-aminopropyl)(5-fluoro-2-{[2-(3-fluorophenyl)ethyl]amino}-6-(1-methylpyrazol-4-yl)(3-pyridyl))carboxamide], for which the IC50 was determined as 3960 nM.
With `N#Cc1ccccc1-c1ccc(C(=O)NCCCN)c(NCCc2cccc(F)c2)n1` [N-(3-aminopropyl)(6-(2-cyanophenyl)-2-{[2-(3-fluorophenyl)ethyl]amino}(3-pyridyl))carboxamide] the figure was 994 nM.
Take `N#Cc1ccccc1-c1ccc(C(=O)NCCCC(N)=O)c(NCCc2cccc(F)c2)n1` [N-(3-carbamoylpropyl)(6-(2-cyanophenyl)-2-{[2-(3-fluorophenyl)ethyl]amino}(3-pyridyl))carboxamide]: the IC50 came out at 185 nM.
Regarding `O=C(NCc1cccnc1)c1ccc(-c2ccccn2)nc1NCCc1ccccn1` [N-(3-pyridylmethyl){6-(2-pyridyl)-2-[(2-(2-pyridyl)ethyl)amino](3-pyridyl)}carboxamide], the IC50 was 5380 nM.
For `O=C(NCc1cccnc1)c1ccc(-c2cccnc2)nc1NCCc1ccccn1` [N-(3-pyridylmethyl){6-(3-pyridyl)-2-[(2-(2-pyridyl)ethyl)amino](3-pyridyl)}carboxamide], the IC50 was determined as 19100 nM.
For the molecule `O=C(NCc1cccnc1)c1ccc(-c2ccncc2)nc1NCCc1ccccn1` [N-(3-pyridylmethyl){6-(4-pyridyl)-2-[(2-(2-pyridyl)ethyl)amino](3-pyridyl)}carboxamide], the half-inhibitory concentration (IC50) was determined as 6560 nM.
The figure for `N#Cc1ccccc1-c1ccc(C(=O)NC(CCCN)C(N)=O)c(NCCc2cccc(F)c2)n1` (centres unmarked) [N-(4-amino-1-carbamoylbutyl)(6-(2-cyanophenyl)-2-{[2-(3-fluorophenyl)ethyl]amino}(3-pyridyl))carboxamide] is 590 nM; for `N#Cc1ccccc1-c1ccc(C(=O)NCCCCN)c(NCCc2cccc(F)c2)n1` [N-(4-aminobutyl)(6-(2-cyanophenyl)-2-{[2-(3-fluorophenyl)ethyl]amino}(3-pyridyl))carboxamide] it is 416 nM; for `CC(=O)Nc1ccc(-c2ccc(C(=O)NCc3cccnc3)c(NCCc3ccccn3)n2)cc1` [N-(4-{6-[(2-(2-pyridyl)ethyl)amino]-5-[N-(3-pyridylmethyl)carbamoyl]-2-pyridyl}phenyl)acetamide] it is 1220 nM.
With `N#Cc1ccccc1-c1ccc(C(=O)NCCCCCN)c(NCCc2cccc(F)c2)n1` [N-(5-aminopentyl)(6-(2-cyanophenyl)-2-{[2-(3-fluorophenyl)ethyl]amino}(3-pyridyl))carboxamide] the figure was 154 nM; with `N#Cc1ccccc1-c1ccc(C(=O)NCCCCCCN)c(NCCc2cccc(F)c2)n1` [N-(6-aminohexyl)(6-(2-cyanophenyl)-2-{[2-(3-fluorophenyl)ethyl]amino}(3-pyridyl))carboxamide], 1240 nM.
On to `Cn1cc(-c2nc(NCCc3cccc(F)c3)c(C(=O)NC[C@H](CO)NC(=O)OC(C)(C)C)cc2F)cn1` [N-((1R)-1-{[(5-fluoro-2-{[2-(3-fluorophenyl)ethyl]amino}-6-(1-methylpyrazol-4-yl)(3-pyridyl))carbonylamino]methyl}-2-hydroxyethyl)(tert-butoxy)carboxamide], for which the IC50 came to 25900 nM.
Turning to `CC[C@H](CNC(=O)c1cc(F)c(-c2cnn(C)c2)nc1NCCc1cccc(F)c1)NC(=O)CNC(=O)OC(C)(C)C` [N-((1R)-1-{[(5-fluoro-2-{[2-(3-fluorophenyl)ethyl]amino}-6-(1-methylpyrazol-4-yl)(3-pyridyl))carbonylamino]methyl}propyl)-2-[(tert-butoxy)carbonylamino]acetamide], the IC50 came to 3040 nM.
On to `CC[C@H](CNC(=O)c1cc(F)c(-c2cnn(C)c2)nc1NCCc1cccc(F)c1)NC(=O)CN` [N-((1R)-1-{[(5-fluoro-2-{[2-(3-fluorophenyl)ethyl]amino}-6-(1-methylpyrazol-4-yl)(3-pyridyl))carbonylamino]methyl}propyl)-2-aminoacetamide], for which the IC50 was 131 nM.
For `CC[C@H](CNC(=O)c1cc(F)c(-c2cn[nH]c2)nc1NCCc1cccc(F)c1)NC(=O)CNC(=O)OC(C)(C)C` [N-((1R)-1-{[(5-fluoro-2-{[2-(3-fluorophenyl)ethyl]amino}-6-pyrazol-4-yl(3-pyridyl))carbonylamino]methyl}propyl)-2-[(tert-butoxy)carbonylamino]acetamide], the IC50 came out at 4320 nM.

Values taken from US7932270B2 (Cytokinetics, Inc., priority 2006, dated 2011).
